{"source": "paper PMC11695783", "about": "(Frontiers in Pharmacology, 2024)", "key": {"[1]": {"test_system": "Mycoplasma pneumoniae strain M129 (ATCC 29342)", "assay": "Time-kill curves", "assay_type": "cell-based", "design": "M. pneumoniae count in time-kill curve: unit not given here", "summary_of_the_method": "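Strain grown at 37 °C, 5% CO2 in modified SP-4 broth (pH 7.4, 20% FBS). Cultures incubated 72 h, sampled every 12 h, 10-fold serially diluted and plated on SP-4 agar; colonies counted after 7 d. Three repeats.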"}, "TNF-α": {"test_system": "TNF-α", "assay": "TNF-α in BALF of M. pneumoniae-infected mice (ELISA)", "assay_type": "in vivo, BALB/c mice", "conditions": "for TNF-α in BALF (AV): group AV; for TNF-α in BALF: individual mice", "method": "Adult BALB/c mice (20–22 g) were divided into a control group, a positive group, and compound 16C groups at low (20 mg/kg), medium (40 mg/kg), and high-dose (80 mg/kg) levels and oral and intramuscular tiamulin treatment groups (40 mg/kg). We formulated the above dose range based on the dose at which tiamulin was approved for injection (10–20 mg/kg) and the dose previously reported (45 mg/kg) ([EMA, 1999]; [Xiao et al., 2016]). In summary, we selected similar doses for compound 16C in vivo study. 40 mg/kg was used as an intermediate value, one-half of it as a low dose, and two times of it as a high dose. To prepare the challenge solution, logarithmic phase culture suspensions were centrifuged at 1700 g for 10 min, and the pellets were suspended in sterile PBS to obtain 1 × 10^9 CFU/mL. Before the challenge, mice were anesthetized with tribromoethanol (250 mg/kg, IP). Mice in the control groups were intratracheally inoculated with sterile PBS, whereas mice in the other groups were intratracheally challenged with 50 μL (1 × 10^9 CFU/mL) M. pneumoniae suspension once a day for 3 days. Compound 16C and tiamulin (tiamulin-IM group) dissolved using the method mentioned in pharmacokinetic studies, and the tiamulin fumarate soluble powder was dissolved in ddH2O for oral administration. After the final challenge, antibiotics were administered at low, medium, and high-dose levels (see above) at 10 a.m. and 10 p.m. daily for 4 consecutive days. Normal saline containing 5% DMSO and 5% Tween-80 was administered as control and positive groups by thigh intramuscular injection. To compare the efficacy of compound 16C and tiamulin under the same route of administration, we used the original tiamulin for intramuscular administration in the same formulation. On the other hand, tiamulin fumarate soluble powder, approved for oral administration to treat animal mycoplasma diseases in China, was administered to mice by gavage. Based on a clinical study of lefamulin in community-acquired bacterial pneumonia (CABP), subjects were administered twice a day and the 96 ± 24 h of starting treatment was an essential point for early clinical response (ECR) ([Paukner et al., 2022]). We therefore stopped treatment at 96 h and sampled at 192 h to explore whether the disease worsened after cessation of treatment. Bronchoalveolar lavage fluid (BALF) and lungs were collected at 0, 96, 192 h (Samples of 0 h were collected before starting treatment, and mice were fed ad libitum without drug treatment during 96–192 h) after the first dose, BALF for cytokine and cytological analysis and lung for histopathological evaluation.\nBronchoalveolar lavage was performed according to a standardized method ([Van Hoecke et al., 2017]). BALF was obtained following infusion of 0.5 mL PBS via tracheal cannulation into the lung twice (total 1 mL), and 200 µL was used for mycoplasma counts. The remaining BALF was centrifuged at 300 g for 10 min to separate the debris. The supernatants were stored at −80°C, and the debris was resuspended in the same volume of PBS containing red blood cell lysis buffer. A hemocytometer was used to count total cell numbers in BALF, and cell smears (Diff-Quik staining) were prepared to calculate the percentages of neutrophils, macrophages, and lymphocytes. IFN-γ, TNF-α, and CXCL1 levels in BALF samples were assessed using commercial ELISA kits using guidelines recommended by the manufacturer (Elabscience, Wuhan, China). Parallel data for each experimental group at each time point were obtained from six different mice."}, "[2]": {"conditions": "compound 16C 20 mg/kg IM, 192 h"}, "[3]": {"conditions": "compound 16C 40 mg/kg IM, 192 h"}, "[4]": {"conditions": "compound 16C 80 mg/kg IM, 192 h"}}, "note": "Several values for one entry are separate records, joined by “and”; a condition that tells them apart may be missing. Identical values can stand only once."}
{"molecule": "C=CC1(C)CC(OC(=O)CSc2ccc(NC(=O)Cc3ccc([N+](=O)[O-])cc3)cc2)C2(C)C(C)CCC3(CCC(=O)C32)C(C)C1O", "note": "(centres unmarked) [compound 16C, 22–((4-((4-nitrophenyl)acetamido)phenyl)thio)deoxypleuromutilin]", "values": [{"measurement": "M. pneumoniae count in time-kill curve", "setting": "[1]; 1×MIC, time 0", "value": 7.809}, {"measurement": "M. pneumoniae count in time-kill curve", "setting": "[1]; 1×MIC, time 12", "value": 7.011}, {"measurement": "M. pneumoniae count in time-kill curve", "setting": "[1]; 1×MIC, time 24", "value": 6.5256}, {"measurement": "M. pneumoniae count in time-kill curve", "setting": "[1]; 1×MIC, time 36", "value": 6.341}, {"measurement": "M. pneumoniae count in time-kill curve", "setting": "[1]; 1×MIC, time 48", "value": 6.63}, {"measurement": "M. pneumoniae count in time-kill curve", "setting": "[1]; 1×MIC, time 60", "value": 6.334}, {"measurement": "M. pneumoniae count in time-kill curve", "setting": "[1]; 1×MIC, time 72", "value": 5.5397}, {"measurement": "reduction of bacterial counts", "setting": "[1]; 1–4 × MIC, 72 h", "value": "2.27–2.60 log10 CFU/mL"}, {"measurement": "M. pneumoniae count in time-kill curve", "setting": "[1]; 2×MIC, time 0", "value": 7.809}, {"measurement": "M. pneumoniae count in time-kill curve", "setting": "[1]; 2×MIC, time 12", "value": 6.901}, {"measurement": "M. pneumoniae count in time-kill curve", "setting": "[1]; 2×MIC, time 24", "value": 6.35}, {"measurement": "M. pneumoniae count in time-kill curve", "setting": "[1]; 2×MIC, time 36", "value": 6.074}, {"measurement": "M. pneumoniae count in time-kill curve", "setting": "[1]; 2×MIC, time 48", "value": 6.197}, {"measurement": "M. pneumoniae count in time-kill curve", "setting": "[1]; 2×MIC, time 60", "value": 5.9}, {"measurement": "M. pneumoniae count in time-kill curve", "setting": "[1]; 2×MIC, time 72", "value": 5.211}, {"measurement": "M. pneumoniae count in time-kill curve", "setting": "[1]; 4×MIC, time 0", "value": 7.247}, {"measurement": "M. pneumoniae count in time-kill curve", "setting": "[1]; 4×MIC, time 12", "value": 6.539}, {"measurement": "M. pneumoniae count in time-kill curve", "setting": "[1]; 4×MIC, time 24", "value": 6.026}, {"measurement": "M. pneumoniae count in time-kill curve", "setting": "[1]; 4×MIC, time 36", "value": 5.763}, {"measurement": "M. pneumoniae count in time-kill curve", "setting": "[1]; 4×MIC, time 48", "value": 5.628}, {"measurement": "M. pneumoniae count in time-kill curve", "setting": "[1]; 4×MIC, time 60", "value": 5.61}, {"measurement": "M. pneumoniae count in time-kill curve", "setting": "[1]; 4×MIC, time 72", "value": 4.889}, {"measurement": "M. pneumoniae count in time-kill curve", "setting": "[1]; 8×MIC, time 0", "value": 7.429}, {"measurement": "M. pneumoniae count in time-kill curve", "setting": "[1]; 8×MIC, time 12", "value": 7.7}, {"measurement": "M. pneumoniae count in time-kill curve", "setting": "[1]; 8×MIC, time 24", "value": 5.719}, {"measurement": "M. pneumoniae count in time-kill curve", "setting": "[1]; 8×MIC, time 36", "value": 4.474}, {"measurement": "M. pneumoniae count in time-kill curve", "setting": "[1]; 8×MIC, time 48", "value": 3.799}, {"measurement": "M. pneumoniae count in time-kill curve", "setting": "[1]; 8×MIC, time 60", "value": 3}, {"measurement": "M. pneumoniae count in time-kill curve", "setting": "[1]; 8×MIC, time 72", "value": 3.001}, {"measurement": "M. pneumoniae count in time-kill curve", "setting": "[1]; 16×MIC, time 0", "value": 7.247}, {"measurement": "M. pneumoniae count in time-kill curve", "setting": "[1]; 16×MIC, time 12", "value": 7.508}, {"measurement": "M. pneumoniae count in time-kill curve", "setting": "[1]; 16×MIC, time 24", "value": 4.094}, {"measurement": "M. pneumoniae count in time-kill curve", "setting": "[1]; 16×MIC, time 36", "value": 3.774}, {"measurement": "M. pneumoniae count in time-kill curve", "setting": "[1]; 16×MIC, time 48", "value": 3.36}, {"measurement": "M. pneumoniae count in time-kill curve", "setting": "[1]; 16×MIC, time 60", "value": 2.9656}, {"measurement": "M. pneumoniae count in time-kill curve", "setting": "[1]; 16×MIC, time 72", "value": 2.848}, {"measurement": "M. pneumoniae count in time-kill curve", "setting": "[1]; 32×MIC, time 0", "value": 7.065}, {"measurement": "M. pneumoniae count in time-kill curve", "setting": "[1]; 32×MIC, time 12", "value": 6.342}, {"measurement": "M. pneumoniae count in time-kill curve", "setting": "[1]; 32×MIC, time 24", "value": 6.583}, {"measurement": "M. pneumoniae count in time-kill curve", "setting": "[1]; 32×MIC, time 36", "value": 4.407}, {"measurement": "M. pneumoniae count in time-kill curve", "setting": "[1]; 32×MIC, time 48", "value": 3.894}, {"measurement": "M. pneumoniae count in time-kill curve", "setting": "[1]; 32×MIC, time 60", "value": 3.568}, {"measurement": "M. pneumoniae count in time-kill curve", "setting": "[1]; 32×MIC, time 72", "value": 2.774}, {"measurement": "number of organisms (decreased to the LOD)", "setting": "[1]; 64 × MIC, 72 h exposure", "value": 2, "unit": "log10 CFU/mL"}, {"measurement": "M. pneumoniae count in time-kill curve", "setting": "[1]; 64×MIC, time 0", "value": 7.065}, {"measurement": "M. pneumoniae count in time-kill curve", "setting": "[1]; 64×MIC, time 12", "value": 5.938}, {"measurement": "M. pneumoniae count in time-kill curve", "setting": "[1]; 64×MIC, time 24", "value": 5.724}, {"measurement": "M. pneumoniae count in time-kill curve", "setting": "[1]; 64×MIC, time 36", "value": 3.5819}, {"measurement": "M. pneumoniae count in time-kill curve", "setting": "[1]; 64×MIC, time 48", "value": 3.199}, {"measurement": "M. pneumoniae count in time-kill curve", "setting": "[1]; 64×MIC, time 60", "value": 2.961}, {"measurement": "M. pneumoniae count in time-kill curve", "setting": "[1]; 64×MIC, time 72", "value": 2}, {"measurement": "concentration at which bactericidal effect was achieved", "setting": "[1]; static time-kill, 72 h", "value": "≥ 8", "unit": "× MIC"}, {"measurement": "reduction of bacterial counts", "setting": "[1]; ≥ 8×MIC, 72 h", "value": "> 3", "unit": "log10 CFU/mL"}, {"measurement": "TNF-α in BALF (AV)", "setting": "TNF-α; compound 16C 20 mg/kg IM, 96 h", "value": 60.6586, "unit": "pg/mL"}, {"measurement": "TNF-α in BALF", "setting": "TNF-α; compound 16C 20 mg/kg IM, 96 h", "value": "156.929 pg/mL and 49.4117 pg/mL and 56.9942 pg/mL and 23.2695 pg/mL and 42.5167 pg/mL and 34.8302 pg/mL"}, {"measurement": "TNF-α in BALF (AV)", "setting": "TNF-α; [2]", "value": 1.835, "unit": "pg/mL"}, {"measurement": "TNF-α in BALF", "setting": "TNF-α; [2]", "value": "1.8363 pg/mL and 1.566 pg/mL and 2.372 pg/mL and 2.105 pg/mL and 1.293 pg/mL"}, {"measurement": "TNF-α in BALF (AV)", "setting": "TNF-α; compound 16C 40 mg/kg IM, 96 h", "value": 10.1817, "unit": "pg/mL"}, {"measurement": "TNF-α in BALF", "setting": "TNF-α; compound 16C 40 mg/kg IM, 96 h", "value": "13.0051 pg/mL and 8.3889 pg/mL and 8.57 pg/mL and 9.454 pg/mL and 9.28 pg/mL and 12.3919 pg/mL"}, {"measurement": "TNF-α in BALF (AV)", "setting": "TNF-α; [3]", "value": 8.528, "unit": "pg/mL"}, {"measurement": "TNF-α in BALF", "setting": "TNF-α; [3]", "value": "8.021 pg/mL and 8.206 pg/mL and 7.835 pg/mL and 9.798 pg/mL and 9.105 pg/mL"}, {"measurement": "TNF-α in BALF (AV)", "setting": "TNF-α; compound 16C 80 mg/kg IM, 96 h", "value": 10.9013, "unit": "pg/mL"}, {"measurement": "TNF-α in BALF", "setting": "TNF-α; compound 16C 80 mg/kg IM, 96 h", "value": "5.596 pg/mL and 10.365 pg/mL and 13.376 pg/mL and 12.1685 pg/mL and 14.3215 pg/mL and 9.581 pg/mL"}, {"measurement": "TNF-α in BALF (AV)", "setting": "TNF-α; [4]", "value": 10.3825, "unit": "pg/mL"}, {"measurement": "TNF-α in BALF", "setting": "TNF-α; [4]", "value": "8.923 pg/mL and 7.924 pg/mL and 10.8189 pg/mL and 12.996 pg/mL and 10.1697 pg/mL and 11.4637 pg/mL"}]}
